In patent US7700584B2 (Hangzhou Minsheng Pharmaceuticals Co., Ltd., priority 2004, dated 2010):
≈ marks a conversion by molar mass, not a printed value. Read-outs that look alike come from different tables or passages of the source.

Columns and labels:
[1] = tested on: A-549 human lung adenocarcinoma; assay: In vitro anti-tumor IC50 (MTT), A-549; assay type: cell-based; settings: Table 4
Experimental: (§1) (1) Single cell suspension was seeded into 96-well plates (the cells was diluted in the PRMI-1640 minimum medium to 3×10^4 cells/ml, […] diluted cells/well). […] The experiments were performed in quadruplicate.
(§2) (2) The medium was removed. Solutions of the anti-tumor agents (50 compounds) were prepared in a freshly prepared medium at serial concentrations. […] of the solution was added into each well. Incubation was continued for 48 hours.
(§3) (3) 20 ug of 2 mg/ml MTT was added into each well, and incubated for 4 hours.
(§4) (4) The medium was removed from the well. The microplates were swiftly turned down to throw-off the medium. […] of DMSO was added into each well, and vortexed at room temperature for 10 minutes.
(§5) (5) OD value (λ=570 nm) was measured with an Enzyme-Linked Detector.
(§6) (6) The graph of cell vitality was plotted, and IC50 was calculated.

[2] = tested on: mouse grafted uterine cervix cancer U14; assay: Activity against mouse grafted uterine cervix cancer U14; assay type: in vivo, Kunming mice; settings: 30 mg/kg; for Tumor weight: X ± SD, n = 10
Experimental: (§7) The experiments were performed according to “Guideline for New Drugs (Western medicines) in Pre-clinical Stages” issued by Bureau of Drug Policy & Administration of the People's Republic of China, and the relevant methods in “Methodology of Pharmaceutical Experiments”, Xu Shuyun et al. ed. 120 male Kunming mice weighting […] were allowed to grow 3 days. No abnormality was observed. The mice were routinely inoculated in oxter with mouse sarcoma S-180, and weighted 4 hrs. after inoculation. The mice were randomly divided into 12 groups, 10 mice/group. Group 1 was given 0.3 ml of physiological saline as negative control; Group 2 was given 5-FU as positive control, 0.6 mg/mouse; Group 3 was given hydroxycamptothecine as positive control, 0.02 mg/mouse. Groups 4, 5 and 6 were injected with 10% Compound 6, 0.4 ml/mouse, 0.2 ml/mouse, and 0.1 ml/mouse, respectively. Groups 7, 8 and 9 were injected with 10% Compound 8, 0.4 ml/mouse, 0.2 ml/mouse, and 0.1 ml/mouse, respectively. Groups 10, 11, and 12 were injected with 10% Compound 20, 0.4 ml/mouse, 0.2 ml/mouse, and 0.1 ml/mouse, respectively. The tested compounds were administered on the next day after inoculation, once a day on alternate days, 6 doses totally administered. On the next day after the end dose, the mice were weighed and sacrificed. After the tumor was excised, body weight and tumor weight were recorded. The tumor inhibition rate was calculated based on the following formula: [(average tumor weight of the control groups−average tumor weight of the experimental groups)/average tumor weight of the control groups]×100%. The data was processed statistically. The above experiments were repeated three times.
(§8) The experiments were identical with the experiments for activity against mouse grafted sarcoma S-180, except the following:
(1) the tumor cell line inoculated was mouse grafted uterine cervix cancer U14;
(2) all the mice were female.

[3] = tested on: mouse grafted sarcoma S-180; assay: Activity against mouse grafted sarcoma S-180; assay type: in vivo, Kunming mice; settings: for Inhibition rate (%) / Tumor weight: 30 mg/kg i.v., 6 doses; for Tumor weight: X ± SD, n = 10
Experimental: (1) Experimental animals: Kunming mice weighting 18-22 g;
(2) 100 mg/ml solutions of the 3 compounds were prepared, respectively, in water for injection (1% surface surfactant was added into the solution of Compound 6). 5-FU and camptothecine, 30 mg/kg and 1 mg/kg, respectively, were used as positive controls;
3. Route of Administration: Intravenous Injection.
as §7

[4] = tested on: MCF-7 human mammary adenocarcinoma; assay: In vitro anti-tumor IC50 (MTT), MCF-7; assay type: cell-based; settings: Table 4
Experimental: as §1, §2, §3, §4, §5, §6

[5] = tested on: Bel-7402 human hepatic carcinoma; assay: In vitro anti-tumor IC50 (MTT), Bel-7402; assay type: cell-based; settings: Table 4
Experimental: as §1, §2, §3, §4, §5, §6

mouse lung cancer Lewis = assay: Activity against mouse grafted lung cancer Lewis; assay type: in vivo, Kunming mice; settings: Lewis, 30 mg/kg; for Tumor weight: X ± SD, n = 10
Experimental: as §7, §8
(1) the tumor cell line inoculated was mouse lung cancer Lewis;
(2) Compound 6, Compound 8 and Compound 21 were not tested for their activity;
(3) the mice were divided into six groups.

[6] = tested on: mouse grafted liver cancer H22; assay: Activity against mouse grafted liver cancer H22; assay type: in vivo, Kunming mice; settings: for Tumor weight: X ± SD, n = 10
Experimental: as §7
The experiments were identical with the experiments for activity against mouse grafted sarcoma S-180, except that the cell line inoculated was liver cancer H22. The experiments were repeated three times.

[7] = tested on: Hela human cervical carcinoma; assay: In vitro anti-tumor IC50 (MTT), Hela; assay type: cell-based; settings: Table 4
Experimental: as §1, §2, §3, §4, §5, §6

[8] = tested on: HL-60 human promyelocytic leukemia; assay: In vitro anti-tumor IC50 (MTT), HL-60; assay type: cell-based; settings: Table 4
Experimental: as §1, §2, §3, §4, §5, §6

[9] = tested on: MCF-7 human mammary adenocarcinoma; assay: In vitro inhibition rate to tumor cells (MTT), MCF-7; assay type: cell-based; settings: Homo sapiens, MCF7, 50 μg/ml, read-out: inhibition rate, Results (%) MCF-7
[10] = tested on: A-549 human lung adenocarcinoma; assay: In vitro inhibition rate to tumor cells (MTT), A-549; assay type: cell-based; settings: for inhibition at 50 µg/mL: Homo sapiens, A549, 50 μg/ml, read-out: inhibition rate, Results (%) A-549
[11] = tested on: LLC mouse Lewis lung carcinoma; assay: In vitro inhibition rate to tumor cells (MTT), LLC; assay type: cell-based; settings: 50 μg/ml; for inhibition at 50 µg/mL: Mus musculus, Lewis lung carcinoma
[12] = tested on: Hela human cervical carcinoma; assay: In vitro inhibition rate to tumor cells (MTT), Hela; assay type: cell-based; settings: Homo sapiens, HeLa, 50 μg/ml, read-out: inhibition rate, Results (%) Hela
[13] = tested on: Bel-7402 human hepatic carcinoma; assay: In vitro inhibition rate to tumor cells (MTT), Bel-7402; assay type: cell-based; settings: for inhibition rate, Results (%) Bel-7402: 50 μg/ml; for inhibition at 50 µg/mL: Homo sapiens, Bel-7402, 50 μg/ml, read-out: inhibition rate, Results (%) Bel-7402
[14] = tested on: SMMC-7721 human hepatic carcinoma; assay: In vitro inhibition rate to tumor cells (MTT), SMMC-7721; assay type: cell-based; settings: for inhibition at 50 µg/mL: Homo sapiens, SMMC-7721, 50 μg/ml, read-out: inhibition rate, Results (%) SMMC-7721
[15] = tested on: U-937 human histocytic lymphoma; assay: In vitro inhibition rate to tumor cells (MTT), U-937; assay type: cell-based; settings: for inhibition rate, Results (%) U-937: 50 μg/ml; for inhibition at 50 µg/mL: Homo sapiens, U-937, 50 μg/ml, read-out: inhibition rate, Results (%) U-937
[16] = tested on: HL-60 human promyelocytic leukemia; assay: In vitro inhibition rate to tumor cells (MTT), HL-60; assay type: cell-based; settings: for inhibition rate, Results (%) HL-60: 50 μg/ml; for inhibition at 50 µg/mL: Homo sapiens, HL-60, 50 μg/ml, read-out: inhibition rate, Results (%) HL-60
[17] = Solubility in water (observation); assay type: physicochemical
MDCK (dog kidney) cells = assay: Toxicity TC50 of the samples in MDCK cells (influenza screening); settings: concentration of 50% toxicity
[18] = tested on: influenza A virus (Jifang 90-15); assay: microbe, parasite or virus in culture; assay type: cell-based
[19] = tested on: influenza B virus (Jifang 97-13); assay: Screening for the activity against influenza B virus (CPE in MDCK cells)
[20] = H22, first experiment, 30 mg/kg i.v., 6 doses
[21] = H22, second experiment, 30 mg/kg
[22] = H22, third experiment, 30 mg/kg

## O=c1[nH]cc(F)c(=O)[nH]1 [Compound 5-FU, reference compound]
[1]
  IC50 (ug/ml) against tumor cell lines, A-549: 0.7 µg/mL (≈ 5.38 µM)
[2]; U14, first experiment
  Inhibition rate (%): 40.2%
  Tumor weight: 2.10 ± 0.31 g
[2]; U14, second experiment
  Inhibition rate (%): 42.6%
  Tumor weight: 1.95 ± 0.31 g
[2]; U14, third experiment
  Inhibition rate (%): 42.0%
  Tumor weight: 2.10 ± 0.31 g
[2]; mouse, in vivo
  Average weight (g)-after administration: 21.0 g
  Average weight(g)-after administration: 21.3 g
[3]; S-180, first experiment
  Inhibition rate (%): 71.2%
  Tumor weight: 0.72 ± 0.23 g
[3]; S-180, second experiment
  Inhibition rate (%): 69.6%
  Tumor weight: 0.79 ± 0.33 g
[3]; mouse, in vivo, iv, 30 mg/kg
  Average weight (g)-after administration: 22.9 g
  Average weight(g)-after administration: 21.9 g
[4]
  IC50 (ug/ml) against tumor cell lines, MCF: 1.53 µg/mL (≈ 11.8 µM)
[5]
  IC50 (ug/ml) against tumor cell lines, Bel-7402: 0.54 µg/mL (≈ 4.15 µM)
Mouse lung cancer Lewis; first experiment
  Inhibition rate (%): 55.0%
  Tumor weight: 1.34 ± 0.31 g
Mouse lung cancer Lewis; second experiment
  Inhibition rate (%): 54.3%
  Tumor weight: 1.10 ± 0.31 g
Mouse lung cancer Lewis; third experiment
  Inhibition rate (%): 53.7%
  Tumor weight: 1.25 ± 0.31 g
[6]; [20]
  Inhibition rate (%): 60.0%
  Tumor weight: 1.21 ± 0.31 g
[6]; [21]
  Inhibition rate (%): 60.5%
  Tumor weight: 1.19 ± 0.31 g
[6]; [22]
  Inhibition rate (%): 64.2%
  Tumor weight: 1.08 ± 0.31 g
[6]; mouse, in vivo, 30 mg/kg
  Average weight (g)-after administration: 20.3 g
  Average weight(g)-after administration: 21.3 g
[6]; mouse, in vivo, iv, 30 mg/kg
  Average weight(g)-after administration: 22.3 g
[7]
  IC50 (ug/ml) against tumor cell lines, Hela: 2.86 µg/mL (≈ 22 µM)
[8]
  IC50 (ug/ml) against tumor cell lines, HL-60: 0.51 µg/mL (≈ 3.92 µM)

## CC(C)C1CC23OC1(O)C/C(=C\NC(C)(C)C)C2CCC3C (stereo not shown) [Compound 15, Curcumol t-butyl amine]
[9]; Table 1
  inhibition at 50 µg/mL: 65.3%
[9]; Table 2 (repeated screening)
  inhibition at 50 µg/mL: 60.1%
[10]; 50 μg/ml, Table 1
  inhibition rate, Results (%) A-549: 17.43%
[10]; Table 2 (repeated screening)
  inhibition at 50 µg/mL: 12.3%
[11]; Table 1
  inhibition rate, Results (%) LLC: −11.83%
[11]; Table 2 (repeated screening)
  inhibition rate, Results (%) LLC: −10.12%
[12]; Table 1
  inhibition at 50 µg/mL: 70%
[12]; Table 2 (repeated screening)
  inhibition at 50 µg/mL: 71.4%
[13]; Table 1
  inhibition rate, Results (%) Bel-7402: 32.98%
[13]; Table 2 (repeated screening)
  inhibition rate, Results (%) Bel-7402: 31.20%
[14]; 50 μg/ml, Table 2 (repeated screening)
  inhibition rate, Results (%) SMMC-7721: −8.60%
[14]; Table 1
  inhibition at 50 µg/mL: -2.5%
other
  melting point: 79 to 80 °C
[15]; Table 1
  inhibition rate, Results (%) U-937: 57.32%
[15]; Table 2 (repeated screening)
  inhibition rate, Results (%) U-937: 50.12%
[16]; Table 1
  inhibition rate, Results (%) HL-60: 8.23%
[16]; Table 2 (repeated screening)
  inhibition rate, Results (%) HL-60: 2.98%

## CC(C)C1CC23OC1(O)CC(O)(CO)C2CCC3C (stereo not shown) [Compound 32, Curcumol dihydroxy compound]
[9]; Table 1
  inhibition at 50 µg/mL: 65.1%
[9]; Table 2 (repeated screening)
  inhibition at 50 µg/mL: 65%
[10]; Table 1
  inhibition at 50 µg/mL: -12.5%
[10]; Table 2 (repeated screening)
  inhibition at 50 µg/mL: -12.5%
[11]; Table 1
  inhibition at 50 µg/mL: 7.27%
[11]; Table 2 (repeated screening)
  inhibition at 50 µg/mL: 7.05%
[12]; Table 1
  inhibition at 50 µg/mL: 84.3%
[12]; Table 2 (repeated screening)
  inhibition at 50 µg/mL: 80.1%
[13]; Table 1
  inhibition at 50 µg/mL: 4.23%
[13]; Table 2 (repeated screening)
  inhibition at 50 µg/mL: 4.23%
[14]; Table 1
  inhibition at 50 µg/mL: 80%
[14]; Table 2 (repeated screening)
  inhibition at 50 µg/mL: 82.6%
[15]; Table 1
  inhibition at 50 µg/mL: 65.3%
[15]; Table 2 (repeated screening)
  inhibition at 50 µg/mL: 67.2%
[16]; Table 1
  inhibition at 50 µg/mL: 14%
[16]; Table 2 (repeated screening)
  inhibition at 50 µg/mL: 13.4%
[17]
  solubility in water (in words): very big

## NC(=O)c1ncn([C@@H]2O[C@H](CO)[C@@H](O)[C@H]2O)n1 [RBV]
MDCK (dog kidney) cells
  TC50: >2000 µg/mL
[18]; CPE in MDCK cells
  IC50, influenza A virus: 2.06 µg/mL (≈ 8.44 µM)
[18]; SI = TC50/IC50
  SI, influenza A virus: 970.87
[19]; CPE in MDCK cells
  IC50, influenza B virus: 6.17 µg/mL (≈ 25.3 µM)
[19]; SI = TC50/IC50
  SI, influenza B virus: 324.15
